Results taken from patent US20210085688A1, “PHARMACEUTICAL COMBINATIONS OF EGFR INHIBITORS AND METHODS OF USE THEREOF” (DANA-FARBER CANCER INSTITUTE, INC., priority 2018, published 2021).
Like-named read-outs stand apart in the source and are kept apart here.

Biological target: EGFR T790M/L858R Ba/F3 cell line (Homo sapiens, UniProt P00533, T790M/L858R, cells depend on it)
Experiment: Ba/F3 cell proliferation (MTS assay), EGFR T790M/L858R
Type: cell-based, murine
Method: The EGFR mutant L858R, Del E746_A750, L858R/T790M, DelE746_A750/T790M, L858R/T790M/C797S and Del/T790M/C797S Ba/F3 cells were previously described (Zhou et al., Nature 462, (2009), 1070-1074). All cell lines were maintained in RPMI 1640 (Cellgro; Mediatech Inc., Herndon, Calif.) supplemented with 10% FBS 100 units/mL penicillin, 100 units/mL streptomycin, and 2 mM glutamine. L858R cells were maintained in ACL-4 media (Invitrogen, Carlsbad, Calif.) supplemented with 5% FBS, 100 units/mL penicillin, 100 units/mL streptomycin, and 2 mM glutamine. The EGFR I941R mutation was introduced via site directed mutagenesis using the Quick Change Site-Directed Mutagenesis kit (Stratagene; La Jolla, Calif.) according to the manufacturer's instructions. All constructs were confirmed by DNA sequencing. The constructs were shuttled into the retroviral vector JP1540 using the BD Creator™ System (BD Biosciences). Ba/F3 cells were infected with retrovirus and according to standard protocols, as described previously (Zhou 2009). Stable clones were obtained by selection in puromycin (2 μg/ml).
Growth and inhibition of growth was assessed by MTS assay and was performed according to previously established methods (Zhou 2009). The MTS assay is a colorimetric method for determining the number of viable cells that is based on the bioreduction of MTS by cells to a formazan product that is soluble in cell culture medium and can be detected spectrophotometrically. […] All experimental points were set up in six wells and all experiments were repeated at least three times. […] The curves were fitted using a non-linear regression model with a sigmoidal dose response.

[1] = absence of cetuximab, read-out: Ba/F3 cellular activity (EC50) T790M/L858R
[2] = read-out: Ba/F3 cellular activity (EC50) T790M/L858R + Cetuximab, presence of 1 μg/mL cetuximab

EGFR T790M/L858R Ba/F3 cell line, sequence (P00533 whole entry T790M/L858R): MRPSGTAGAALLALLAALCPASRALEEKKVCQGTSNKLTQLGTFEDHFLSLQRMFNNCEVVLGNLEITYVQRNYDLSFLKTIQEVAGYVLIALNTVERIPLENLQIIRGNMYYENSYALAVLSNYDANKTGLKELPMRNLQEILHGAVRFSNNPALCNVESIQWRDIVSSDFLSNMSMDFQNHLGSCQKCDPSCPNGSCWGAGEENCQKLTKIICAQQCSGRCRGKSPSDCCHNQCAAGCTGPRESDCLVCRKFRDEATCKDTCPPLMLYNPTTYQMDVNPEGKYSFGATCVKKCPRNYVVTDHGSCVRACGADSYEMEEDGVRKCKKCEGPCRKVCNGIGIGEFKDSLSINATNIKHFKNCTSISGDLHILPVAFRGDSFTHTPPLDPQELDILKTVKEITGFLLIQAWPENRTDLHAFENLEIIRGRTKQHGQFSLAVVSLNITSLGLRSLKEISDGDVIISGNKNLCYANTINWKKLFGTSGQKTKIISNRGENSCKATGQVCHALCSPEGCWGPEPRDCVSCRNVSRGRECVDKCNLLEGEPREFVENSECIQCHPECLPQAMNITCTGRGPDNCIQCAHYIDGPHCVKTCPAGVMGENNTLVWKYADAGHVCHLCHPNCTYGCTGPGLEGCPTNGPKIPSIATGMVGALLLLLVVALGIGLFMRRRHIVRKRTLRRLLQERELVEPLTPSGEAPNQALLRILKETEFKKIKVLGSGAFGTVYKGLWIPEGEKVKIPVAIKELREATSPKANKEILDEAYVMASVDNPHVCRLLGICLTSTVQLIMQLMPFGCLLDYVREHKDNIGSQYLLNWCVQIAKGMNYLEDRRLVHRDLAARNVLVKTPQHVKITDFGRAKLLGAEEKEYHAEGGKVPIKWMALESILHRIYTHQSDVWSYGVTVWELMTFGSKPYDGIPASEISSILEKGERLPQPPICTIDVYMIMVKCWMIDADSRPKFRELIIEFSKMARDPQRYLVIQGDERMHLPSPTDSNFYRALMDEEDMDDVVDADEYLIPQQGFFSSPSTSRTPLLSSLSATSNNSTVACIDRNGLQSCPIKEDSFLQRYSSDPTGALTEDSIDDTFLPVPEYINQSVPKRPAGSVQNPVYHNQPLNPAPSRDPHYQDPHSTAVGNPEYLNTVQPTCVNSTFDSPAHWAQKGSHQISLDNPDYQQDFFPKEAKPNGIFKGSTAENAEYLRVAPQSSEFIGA

SMILES | EC50 [1] | EC50 [2]
C=CC(=O)Nc1ccc2c(c1)N(Cc1ccccc1)C(=O)c1cc(-c3ccc4[nH]ccc4c3)ccc1N2 [Compound I-1] | ≥ 750 nM | 500 to 750 nM
O=C(CCl)Nc1ccc2c(c1)N(Cc1ccccc1)C(=O)c1cc(-c3ccc4[nH]ccc4c3)ccc1N2 [Compound I-2] | < 250 nM | < 250 nM
C=CC(=O)Nc1ccc2c(c1)N(Cc1ccccc1)C(=O)c1cc(-c3ccc(N4CCNCC4)cc3)ccc1N2 [Compound I-3, N-(10-Benzyl-11-oxo-2-(4-(piperazin-1-yl)phenyl)-10,11-dihydro-5H-dibenzo[b,e][1,4]diazepin-8-yl)acrylamide] | ≥ 750 nM | ≥ 750 nM
O=C1c2cc(Br)ccc2Nc2ccc(F)cc2N1Cc1ccccc1 [I-a, 10-Benzyl-2-bromo-8-fluoro-5,10-dihydro-11H-dibenzo[b,e][1,4]diazepin-11-one] | ≥ 750 nM | 250 to 500 nM
